Reference: patent US20140135327A1, “N- (2 -AMINOPHENYL) BENZAMIDE DERIVATIVES AS HISTONE DEACETYLASE INHIBITORS” (CANCER RESEARCH TECHNOLOGY LIMITED, priority 2011, published 2014)

Key:
Type in all cases: biochemical
[1] = biological target: T1, HDAC 1 (Homo sapiens, UniProt Q13547); assay: Fluorescence-based HDAC isoform assay with electrophoretic separation, HDAC 1; conditions: isolated 6×His-tagged isoform, 1 μM FAM-labeled acetylated peptide, 17 h at 25° C.
T1 construct: HDACs 1, 2, 3, 6, and 8 were expressed as full length fusion proteins; 6xHis; made in house; host or cells: Sf9 cells (baculovirus)
T1 sequence (Q13547 whole entry, species assumed, the tested form may be a part, canonical isoform): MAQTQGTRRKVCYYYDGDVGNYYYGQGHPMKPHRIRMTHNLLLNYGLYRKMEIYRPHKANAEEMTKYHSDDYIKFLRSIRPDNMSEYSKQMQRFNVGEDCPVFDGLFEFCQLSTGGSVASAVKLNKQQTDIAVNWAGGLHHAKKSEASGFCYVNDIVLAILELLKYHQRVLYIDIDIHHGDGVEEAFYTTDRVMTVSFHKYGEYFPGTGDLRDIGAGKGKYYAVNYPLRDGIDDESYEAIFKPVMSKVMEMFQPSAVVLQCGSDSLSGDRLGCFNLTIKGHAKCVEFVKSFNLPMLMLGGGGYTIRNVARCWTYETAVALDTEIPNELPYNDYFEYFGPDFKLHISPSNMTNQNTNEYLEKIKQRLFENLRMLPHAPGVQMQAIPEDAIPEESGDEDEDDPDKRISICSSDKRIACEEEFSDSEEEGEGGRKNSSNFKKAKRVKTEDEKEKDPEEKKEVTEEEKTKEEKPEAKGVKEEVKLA
Procedure: (§1) The inhibitory effects of the compounds of Examples 7 and 9 above on HDAC activity were determined using a fluorescence-based assay with electrophoretic separation of substrate and product carried out using a microfluidic system followed by quantitation of fluorescence intensity in the substrate and product peaks.
(§2) The assays were performed using isolated HDAC isoforms that had been expressed as 6×His-tagged fusion proteins in a baculovirus expression system in Sf9 cells. HDACs 1, 2, 3, 6, and 8 were expressed as full length fusion proteins. For HDAC-4 and 7 only catalytic domains were expressed (HDAC-4 CAT and HDAC-7 CAT). The HDAC10 fusion protein was expressed as a carboxy-terminal deletion of 38 amino acids (residues 632-669). HDAC3 was coexpressed with a fragment of the SMRT gene (residues 395-489) to generate enzymatically active protein. Purified proteins were incubated with 1 μM carboxyfluorescein (FAM)-labeled acetylated peptide substrate and test compound for 17 h at 25° C. in HDAC assay buffer containing 100 mM HEPES (pH 7.5), 25 mM KCl, 0.1% BSA, and 0.01% Triton X-100. […] Substrate and product were separated electrophoretically using a Caliper LabChip 3000 system with blue laser excitation and green fluorescence detection (CCD2). The fluorescence intensity in the substrate and product peaks was determined using the Well Analyzer software on the Caliper system. […]

[2] = biological target: T2, HDAC 6 (Homo sapiens, UniProt Q9UBN7); assay: Fluorescence-based HDAC isoform assay with electrophoretic separation, HDAC 6; conditions: isolated 6×His-tagged isoform, 1 μM FAM-labeled acetylated peptide, 17 h at 25° C.
T2 sequence (Q9UBN7 1-1215): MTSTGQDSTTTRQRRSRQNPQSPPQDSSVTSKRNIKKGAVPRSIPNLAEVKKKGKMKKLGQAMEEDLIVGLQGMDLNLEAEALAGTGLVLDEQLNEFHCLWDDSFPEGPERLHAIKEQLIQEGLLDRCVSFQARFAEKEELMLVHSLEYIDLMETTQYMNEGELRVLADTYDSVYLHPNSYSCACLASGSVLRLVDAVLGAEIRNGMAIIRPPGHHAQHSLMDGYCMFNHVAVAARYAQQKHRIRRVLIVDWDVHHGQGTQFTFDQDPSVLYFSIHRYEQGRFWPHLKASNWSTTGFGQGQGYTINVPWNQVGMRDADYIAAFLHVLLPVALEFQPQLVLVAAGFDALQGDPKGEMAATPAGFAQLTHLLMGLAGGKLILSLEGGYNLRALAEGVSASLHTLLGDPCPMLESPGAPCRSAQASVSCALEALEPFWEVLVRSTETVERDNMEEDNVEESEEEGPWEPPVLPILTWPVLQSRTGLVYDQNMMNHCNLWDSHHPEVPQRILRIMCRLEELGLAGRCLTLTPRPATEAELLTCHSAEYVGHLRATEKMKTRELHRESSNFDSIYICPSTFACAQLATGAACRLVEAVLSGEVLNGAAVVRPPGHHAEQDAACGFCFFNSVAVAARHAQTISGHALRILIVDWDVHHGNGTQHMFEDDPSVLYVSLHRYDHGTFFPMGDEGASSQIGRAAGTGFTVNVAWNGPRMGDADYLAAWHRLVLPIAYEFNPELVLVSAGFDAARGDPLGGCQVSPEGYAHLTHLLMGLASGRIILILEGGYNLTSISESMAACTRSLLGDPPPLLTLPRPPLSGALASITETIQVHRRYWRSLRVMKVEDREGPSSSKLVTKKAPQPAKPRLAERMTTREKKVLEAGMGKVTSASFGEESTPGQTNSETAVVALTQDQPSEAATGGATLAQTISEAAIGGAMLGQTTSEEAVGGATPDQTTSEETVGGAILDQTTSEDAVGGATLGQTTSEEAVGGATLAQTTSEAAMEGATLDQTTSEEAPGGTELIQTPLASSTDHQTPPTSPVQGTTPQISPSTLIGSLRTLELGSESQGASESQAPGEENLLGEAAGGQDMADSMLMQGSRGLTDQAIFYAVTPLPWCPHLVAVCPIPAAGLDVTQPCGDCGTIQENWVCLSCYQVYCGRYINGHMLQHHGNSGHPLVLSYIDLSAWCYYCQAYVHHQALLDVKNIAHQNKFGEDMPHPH
Procedure: as §1, §2

[3] = biological target: T2, HDAC 6; assay: Caliper HDAC inhibitor profiling assay (microfluidic mobility-shift), HDAC 6; conditions: 1 hour at room temperature, read-out: IC50 (μM) HDAC6
Procedure: (§3) The activity of the compounds of the invention against HDAC 3 (Class I) and HDAC 6 (Class II) can be determined using the Caliper Life Sciences HDAC inhibitor profiling assay, which utilises microfluidic mobility-shift detection.
(§4) Reaction buffer: 25 mM Tris/Cl, pH 8.0, 137 mM NaCl, 2.7 mM KCl, 1 mM MgCl2, 0.1 mg/ml BSA (fatty acid free).
(§5) Stop Buffer: 100 mM HEPES, pH 7.5, 10 mM EDTA, 0.04% Brij-35, 0.25% CR-3, and 2.5 μM Trichostatin A.
(§6) Stopped reactions were assembled in microtiter plate wells by adding 1 μL of the inhibitor compound in DMSO, 15 μL 2× Enzyme, and 15 μL 2× peptide. The reactions were incubated for 1 hour at room temperature, stopped with the addition of 45 μL Stop Solution, and read on the LabChip EZ Reader®. The curves were fit with sigmoidal dose response algorithm using GraphPad Prism.

[4] = biological target: HDAC 3 (Homo sapiens, UniProt O15379); assay: Caliper HDAC inhibitor profiling assay (microfluidic mobility-shift), HDAC 3; conditions: 1 hour at room temperature, read-out: IC50 (μM) HDAC3
HDAC 3, sequence (O15379 whole entry, species assumed): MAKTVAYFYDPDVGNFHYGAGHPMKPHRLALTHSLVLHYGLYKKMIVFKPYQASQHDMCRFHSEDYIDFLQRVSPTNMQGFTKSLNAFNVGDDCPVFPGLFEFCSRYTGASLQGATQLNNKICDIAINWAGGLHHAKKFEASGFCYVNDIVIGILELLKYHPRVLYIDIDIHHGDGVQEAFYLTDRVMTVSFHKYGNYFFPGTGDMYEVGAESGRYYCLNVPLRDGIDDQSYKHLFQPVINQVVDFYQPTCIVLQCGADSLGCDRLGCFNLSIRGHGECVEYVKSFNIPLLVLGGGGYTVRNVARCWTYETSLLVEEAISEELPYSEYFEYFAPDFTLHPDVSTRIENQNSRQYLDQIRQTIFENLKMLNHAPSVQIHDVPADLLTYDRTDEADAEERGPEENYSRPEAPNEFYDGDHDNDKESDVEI
HDAC 3, sequence (Q9Y618 395-489 partner limits assumed, species assumed): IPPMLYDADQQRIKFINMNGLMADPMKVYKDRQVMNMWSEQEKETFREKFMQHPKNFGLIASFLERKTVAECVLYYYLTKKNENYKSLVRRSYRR
Procedure: as §3, §4, §5, §6

Compound: C=C1CN(Cc2ccc(C(=O)Nc3ccccc3N)cc2)C(=O)c2ccccc21 [Example 7, N-(2-Aminophenyl)-4-[(4-methylene-1-oxo-3,4-dihydroisoquino-2(1H)-yl)methyl]benzamide]
- IC50 [1]: 8.7 µM
- IC50 [2]: > 30 µM
- IC50 [3]: > 10 µM
- IC50 [4]: 0.22 µM

Compound: C=C1CN(Cc2ccc(C(=O)Nc3ccccc3N)cc2)C(CC(=O)O)c2ccccc21 (centres unmarked) [Example 9, [2-(4-{[(2-Aminophenyl)amino]carbonyl}benzyl)-4-methylene-1,2,3,4-tetra hydroisoquinolin-1-yl]acetic acid]
- IC50 [1]: > 30 µM
- IC50 [2]: > 30 µM
- IC50 [3]: > 10 µM
- IC50 [4]: 0.78 µM
